# Test results as given in the Deep4Chem optical property database.
# Assay: photoluminescence quantum yield (fraction); solvent given as SMILES
smiles,measurement,setting,value
O=c1oc2cccc3c4cccc5ccc6c7ccccc7c1c(c23)c6c54,photoluminescence quantum yield,in C1CCOC1,0.287
C(=C\c1c2ccccc2cc2ccccc12)/c1ccccc1,photoluminescence quantum yield,in CC1CCCCC1,0.46
same,photoluminescence quantum yield,in CC#N,0.45
CCCc1ccc2c(c1)cc1n2B2c3c4c-1cccc4cc1cccc(c31)-c1cc3cc(CCC)ccc3n12,photoluminescence quantum yield,in C1CCOC1,0.39
Brc1ccc(-c2nc(-c3ccc(C#Cc4ccc(-n5c6ccccc6c6ccccc65)cc4)cc3)nc(-c3ccc(C#Cc4ccc(-n5c6ccccc6c6ccccc65)cc4)cc3)n2)cc1,photoluminescence quantum yield,in C1CCOC1,0.68
same,photoluminescence quantum yield,in CC#N,0.02
same,photoluminescence quantum yield,in CCCCCC,0.9
same,photoluminescence quantum yield,in Cc1ccccc1,0.96
same,photoluminescence quantum yield,in ClCCl,0.65
COc1ccc2c(c1)c1cc(OC)ccc1n2-c1cc(Cl)c([C](c2c(Cl)cc(Cl)cc2Cl)c2c(Cl)cc(Cl)cc2Cl)c(Cl)c1,photoluminescence quantum yield,in C1CCCCC1,0.006
C[Si](C)(c1cccc2ccccc12)[Si](C)(C)[Si](C)(C)[Si](C)(C)[Si](C)(C)[Si](C)(C)c1c2ccccc2cc2ccccc12,photoluminescence quantum yield,in C1CCCCC1,0.5
same,photoluminescence quantum yield,in CC#N,0.017
CCOC(=O)CSc1nc(-c2ccccc2)c(C)c(C#N)c1C#N,photoluminescence quantum yield,in C1COCCO1,0.031
same,photoluminescence quantum yield,in CC#N,0.036
same,photoluminescence quantum yield,in CCO,0.037
same,photoluminescence quantum yield,in CCOC(C)=O,0.037
same,photoluminescence quantum yield,in ClC(Cl)Cl,0.033
same,photoluminescence quantum yield,in c1ccccc1,0.038
CCOC(=O)c1ccc(C2=C(c3ccccc3)c3oc4ccccc4[n+]3[B-](F)(F)O2)cc1,photoluminescence quantum yield,in C1CCOC1,0.011
Cc1c(C(=O)c2ccc3c4cccc5cccc(c6cccc2c63)c54)c2ccc3cccc4c5cccc6ccc1c(c65)c2c34,photoluminescence quantum yield,in ClCCl,0.069
C(=C\c1nc2c3ccccc3c3ccccc3c2o1)/c1ccccc1,photoluminescence quantum yield,in CC#N,0.23
Cc1ccc(-c2cccc3ncc(-c4ccccc4)n23)cc1,photoluminescence quantum yield,in ClCCl,0.28
CC(C)(C)c1ccc2c(c1)c1cc(C(C)(C)C)ccc1n2-c1ccccc1-c1nc(-c2ccccc2P(=O)(c2ccccc2)c2ccccc2)nc(-c2ccccc2P(=O)(c2ccccc2)c2ccccc2)n1,photoluminescence quantum yield,in O=P(c1ccccc1)(c1ccccc1)c1ccccc1Oc1ccccc1P(=O)(c1ccccc1)c1ccccc1,0.38
CCCCN1C(=O)c2c(Br)c(Br)c3c4c(Br)c(Br)c5c6c(c(Br)c(Br)c(c7c(Br)c(Br)c(c2c37)C1=O)c64)C(=O)N(CCCC)C5=O,photoluminescence quantum yield,in ClC(Cl)Cl,0.01
CCC1=C(C)C2=C(c3cc(C(=O)Cl)cc(C4=C5C(C)=C(CC)C(C)=[N+]5[B-](F)(F)n5c(C)c(CC)c(C)c54)c3)c3c(C)c(CC)c(C)n3[B-](F)(F)[N+]2=C1C,photoluminescence quantum yield,in C1CCOC1,0.87
same,photoluminescence quantum yield,in CC#N,0.41
same,photoluminescence quantum yield,in CN(C)C=O,0.61
same,photoluminescence quantum yield,in Cc1ccccc1,0.83
same,photoluminescence quantum yield,in ClC(Cl)Cl,0.7
N#Cc1nn(-c2ccc(Cl)cc2)nc1N1CCCC1,photoluminescence quantum yield,in CC#N,0.829
CCCCN(CCCC)c1ccc2c(c1)C#CC#Cc1cc(N(CCCC)CCCC)ccc1C#Cc1cc(c3cc1C#Cc1ccc(C(F)(F)F)cc1C#CC#Cc1cc(C(F)(F)F)ccc1C#C3)C#C2,photoluminescence quantum yield,in ClCCl,0.15
CC(C)(C)NC(=O)c1ccc(F)c2ccc3c4ccccc4c4ccccc4c3c12,photoluminescence quantum yield,in ClCCl,0.04
COC(=O)c1nc2c(N(C)C)nc(N)nc2n1Cc1ccccc1,photoluminescence quantum yield,in C1COCCO1,0.95
same,photoluminescence quantum yield,in CC#N,0.83
same,photoluminescence quantum yield,in CO,0.39
same,photoluminescence quantum yield,in ClCCl,0.95
CN1C(=O)c2cccc3c(-n4c5ccccc5c5ccccc54)ccc(c23)C1=O,photoluminescence quantum yield,in C1CCOC1,0.031
same,photoluminescence quantum yield,in CCCCCC,0.895
same,photoluminescence quantum yield,in ClC(Cl)Cl,0.204
same,photoluminescence quantum yield,in ClCCl,0.029
CCOC(=O)COc1ccc(/C=C/C2=C3C(C)=CC(C)=[N+]3[B-](F)(F)n3c2c2ccccc2c3-c2[nH]c(C)cc2C)cc1,photoluminescence quantum yield,in ClCCl,0.01
CCOC(CN1C(=O)C2=C(c3ccc(OC)c(OC)c3)N(CC(OCC)OCC)C(=O)C2=C1c1ccc(OC)c(OC)c1)OCC,photoluminescence quantum yield,in ClC(Cl)Cl,0.9
O=P1(c2ccccc2)C(c2ccc(C(F)(F)F)cc2)=Cc2ccccc21 (stereo unspecified),photoluminescence quantum yield,in C1CCOC1,0.65
COc1ccc(-c2c3ccc(=[N+]4CCCCC4)cc-3oc3cc(N4CCCCC4)ccc23)cc1,photoluminescence quantum yield,in CCO,0.31
same,photoluminescence quantum yield,in ClCCl,0.91
N#Cc1ccc2c(c1)C1(c3cc(C#N)ccc3-2)c2ccccc2N(c2ccccc2)c2ccccc21,photoluminescence quantum yield,in Cc1ccccc1,0.47
C1=Cc2ccccc2C(=Cc2ccc(C=C3c4ccccc4C=Cc4ccccc43)cc2)c2ccccc21,photoluminescence quantum yield,in C1CCOC1,5e-05
O=C(O)c1ccc(-c2ccc(-c3nc(-c4ccccc4)c4ccccn34)cc2)s1,photoluminescence quantum yield,in CC#N,0.44
Brc1ccc(-c2nc3sc4ccccc4c3s2)cc1,photoluminescence quantum yield,in CS(C)=O,0.88
COc1ccc(/C=C/c2nc(-c3ccc([N+](=O)[O-])cc3)[nH]c2/C=C/c2ccc(OC)cc2)cc1,photoluminescence quantum yield,in ClCCl,0
CN(C)c1c2ccccc2cc2ccccc12,photoluminescence quantum yield,in C1CCCCC1,0.008
same,photoluminescence quantum yield,in C1CCOC1,0.01
same,photoluminescence quantum yield,in C1COCCO1,0.013
same,photoluminescence quantum yield,in CC#N,0.007
same,photoluminescence quantum yield,in CCO,0.007
same,photoluminescence quantum yield,in CN(C)C=O,0.016
same,photoluminescence quantum yield,in CO,0.008
same,photoluminescence quantum yield,in COCCOC,0.007
same,photoluminescence quantum yield,in CS(C)=O,0.018
same,photoluminescence quantum yield,in O,0.011
same,photoluminescence quantum yield,in OCC(O)CO,0.068
same,photoluminescence quantum yield,in OCCO,0.022
c1ccc2c(c1)ccc1c3ccccc3ccc21,photoluminescence quantum yield,in ClCCl,0.12
CC1=NN(c2cccc3ccccc23)[B-](F)(F)[n+]2ccccc21,photoluminescence quantum yield,in ClCCl,0.07
N#Cc1cccc(N)c1,photoluminescence quantum yield,in C1CCCCC1,0.062
same,photoluminescence quantum yield,in CC#N,0.32
same,photoluminescence quantum yield,in CCCCCC,0.16
same,photoluminescence quantum yield,in CCO,0.19
same,photoluminescence quantum yield,in O,0.0019
same,photoluminescence quantum yield,in OCC(F)(F)F,0.0054
c1ccc2cc3c(cc2c1)-c1cccc2cc4ccccc4c-3c12,photoluminescence quantum yield,in CCCCCCC,0.52
CC(C)(C)c1ccc(C2=Cc3cc4c(cc3P2(=O)c2ccccc2)C=C(c2ccc(C(C)(C)C)cc2)P4(=O)c2ccccc2)cc1 (stereo unspecified),photoluminescence quantum yield,in C1CCOC1,0.44
COc1ccc(-c2cnc(/C=C/c3ccc(C#N)cc3)o2)cc1OC,photoluminescence quantum yield,in ClCCl,0.38
CC[N+]1(CC)CN2C(=N1)C(C(=O)O)=Cc1cc(OC)c(OC)cc12,photoluminescence quantum yield,in O,0.859
N#CC(C#N)=Cc1ccc(-c2ccc(N(c3ccccc3)c3ccccc3)cc2)s1,photoluminescence quantum yield,in ClC(Cl)Cl,0.18
Clc1ccc(C2=C(c3ccc(Cl)cc3)c3cccc4c3c(cc3nc5ccccc5nc34)O2)cc1,photoluminescence quantum yield,in ClCCl,0.37
CNc1ncc2nc(C(=O)OC)n(Cc3ccccc3)c2n1,photoluminescence quantum yield,in C1COCCO1,0.65
same,photoluminescence quantum yield,in CC#N,0.66
same,photoluminescence quantum yield,in CO,0.61
same,photoluminescence quantum yield,in ClCCl,0.65
Oc1ccc2ccccc2c1-c1nc2c(c3c1-c1ccccc1CC3)-c1ccccc1CC2,photoluminescence quantum yield,in ClCCl,0.07
c1ccc(N(c2ccccc2)c2ccc(-c3ncnc4ccccc34)cc2)cc1,photoluminescence quantum yield,in ClCCl,0.93
CCN(CC)c1ccc2cc(/C(Cl)=C/C=C/C(=C(C#N)C#N)c3ccc(N(c4ccccc4)c4ccccc4)cc3)c(=O)oc2c1,photoluminescence quantum yield,in CC(C)=O,0.015
same,photoluminescence quantum yield,in CCOC(C)=O,0.028
same,photoluminescence quantum yield,in CN(C)C=O,0.002
same,photoluminescence quantum yield,in CS(C)=O,0.003
same,photoluminescence quantum yield,in Cc1ccccc1,0.098
same,photoluminescence quantum yield,in ClCCl,0.018
Cc1ccc(C)c(C2=C3C=CC(=[N+](C)C)C=C3[Si](C)(C)c3cc(N(C)C)ccc32)c1,photoluminescence quantum yield,in O,0.32
CCCCCCCCc1ccc(-c2c3cc(-c4cc(CCCCCCCC)c(-c5ccc(-c6sc(/C=C7\SC(N8CCCCC8)=NC7=O)cc6CCCCCCCC)s5)s4)sc3c(-c3ccc(CCCCCCCC)s3)c3cc(-c4cc(CCCCCCCC)c(-c5ccc(-c6sc(/C=C7\SC(N8CCCCC8)=NC7=O)cc6CCCCCCCC)s5)s4)sc23)s1,photoluminescence quantum yield,in C1CCOC1,0.214
same,photoluminescence quantum yield,in Cc1ccccc1,0.211
same,photoluminescence quantum yield,in ClC(Cl)Cl,0.128
same,photoluminescence quantum yield,in ClCCl,0.144
same,photoluminescence quantum yield,in Clc1ccccc1,0.186
CCCCC1(CCCC)c2cc(C#Cc3ccc4ccc5cccc6ccc3c4c56)ccc2-c2ccc(C#Cc3ccc4ccc5cccc6ccc3c4c56)cc21,photoluminescence quantum yield,in Cc1ccccc1,0.99
CCOC(=O)C1=CNC=C(C(=O)OCC)C1c1ccccc1,photoluminescence quantum yield,in C1CCOC1,0.7
same,photoluminescence quantum yield,in CO,0.58
CCC1=C(C2=C(C3=C(CC)S(=O)(=O)c4ccccc43)C(F)(F)C(F)(F)C2(F)F)c2ccccc2S1(=O)=O,photoluminescence quantum yield,in C1COCCO1,0
COc1ccc2cc(/C=C/c3nc(/C=C/c4ccc(N(C)C)cc4)cc(/C=C/c4ccc(N(C)C)cc4)n3)ccc2c1,photoluminescence quantum yield,in ClCCl,0.52
O=P1(c2ccccc2)c2ccc(N3c4ccccc4Oc4ccccc43)cc2-c2cc(N3c4ccccc4Oc4ccccc43)ccc21,photoluminescence quantum yield,in Cc1ccccc1,0.83
same,photoluminescence quantum yield,in c1ccc2c(c1)c1ccccc1n2-c1ccc(-c2ccc(-n3c4ccccc4c4ccccc43)cc2)cc1,0.8
O=P1(c2ccccc2)C(c2ccccc2)=Cc2cc3ccccc3cc21 (stereo unspecified),photoluminescence quantum yield,in ClCCl,0.37
COc1ccc(Oc2ccc3c4c(cccc24)C(=O)N(c2c(C(C)C)cccc2C(C)C)C3=O)cc1,photoluminescence quantum yield,in ClCCl,0.002
COc1c2ccccc2c(OC)c2c1c1cccc(OC)c1n2C,photoluminescence quantum yield,in C1CCCCC1,0.39
same,photoluminescence quantum yield,in CC#N,0.4
same,photoluminescence quantum yield,in CO,0.39
same,photoluminescence quantum yield,in ClCCl,0.44
C/C=C/c1cccc(OC)c1,photoluminescence quantum yield,in CC#N,0.24
same,photoluminescence quantum yield,in CCCCCC,0.31
CCOC(=O)C1=C(C(=O)OC)N2CCc3cc(OC)c(OC)cc3C2=C[C@H](c2ccc(Cl)cc2)C12c1ccccc1-c1ccccc12,photoluminescence quantum yield,in ClCCl,0.00105
Cc1ccc(N(c2ccc(C)cc2)c2ccc(-c3ccc(C=C(C#N)C#N)o3)cc2)cc1,photoluminescence quantum yield,in ClC(Cl)Cl,0.1
CC(C)(C)NC(=O)c1cc2ccc3cccc4ccc(c1C(=O)NC(C)(C)C)c2c34,photoluminescence quantum yield,in ClC(Cl)Cl,0.39
CCCCCCCCCC[n+]1cc2ccc3c[n+](CCCCCCCCCC)cc4ccc(c1)c2c34,photoluminescence quantum yield,in CC#N,0.5
CCCCCCN(CCCCCC)c1ccc(C#Cc2ccc(C(F)(F)F)cc2)cc1,photoluminescence quantum yield,in CO,0.0074
same,photoluminescence quantum yield,in ClCCl,0.24
CC(C)(C)c1ccc2c(c1)c1cc(C(C)(C)C)ccc1n2-c1cc(-n2c3ccc(C(C)(C)C)cc3c3cc(C(C)(C)C)ccc32)c(-n2c3ccc(C(C)(C)C)cc3c3cc(C(C)(C)C)ccc32)c(C#N)c1-n1c2ccc(C(C)(C)C)cc2c2cc(C(C)(C)C)ccc21,photoluminescence quantum yield,in Cc1ccccc1,0.68
